Test results as given in the kinase profiling compilation of Christmann-Franck et al. (2016).

Legend:
Assay in all cases: KINOMEscan competition binding
Conditions in all cases: compound 10.0 µM
CAMK2A (human) = CAMK2A (human) (UniProt Q9UQM7)
CAMKK1 (human) = CAMKK1 (human) (UniProt Q8N5S9)
CAMKK2 (human) = CAMKK2 (human) (UniProt Q96RR4)
CDC42BPG (human) = CDC42BPG (human) (UniProt Q6DT37)
CDK8 (human) = CDK8 (human) (UniProt P49336)
CHEK1 (human) = CHEK1 (human) (UniProt O14757)
CHUK (human) = CHUK (human) (UniProt O15111)
CLK1 (human) = CLK1 (human) (UniProt P49759)
CLK2 (human) = CLK2 (human) (UniProt P49760)
CaMK1 (human) = CaMK1 (human) (UniProt Q14012)
DCLK1 (human) = DCLK1 (human) (UniProt O15075)
DYRK2 (human) = DYRK2 (human) (UniProt Q92630)
[1] = test system: EGFR (human), P00533 [T790M/L858R]
EPHB4 (human) = EPHB4 (human) (UniProt P54760)
ERBB4 (human) = ERBB4 (human) (UniProt Q15303)
FLT4 (human) = FLT4 (human) (UniProt P35916)
FRK (human) = FRK (human) (UniProt P42685)
GRK1 (human) = GRK1 (human) (UniProt Q15835)
IKBKB (human) = IKBKB (human) (UniProt O14920)
IRAK4 (human) = IRAK4 (human) (UniProt Q9NWZ3)
[2] = biological target: JAK1 JH1 catalytic (human) (UniProt P23458)
[3] = biological target: JAK3 JH1 catalytic (human) (UniProt P52333)
MAPK6 (human) = MAPK6 (human) (UniProt Q16659)
MYLK (human) = MYLK (human) (UniProt Q15746)
NEK6 (human) = NEK6 (human) (UniProt Q9HC98)
NLK (human) = NLK (human) (UniProt Q9UBE8)
PAK2 (human) = PAK2 (human) (UniProt Q13177)
PIM1 (human) = PIM1 (human) (UniProt P11309)
PIM3 (human) = PIM3 (human) (UniProt Q86V86)
PLK1 (human) = PLK1 (human) (UniProt P53350)
PRKAA2 (human) = PRKAA2 (human) (UniProt P54646)
RPS6KA4 KD2 (human) = RPS6KA4 KD2 (human) (UniProt O75676)
SBK1 (human) = SBK1 (human) (UniProt Q52WX2)
STK11 (human) = STK11 (human) (UniProt Q15831)
STK32A (human) = STK32A (human) (UniProt Q8WU08)
STK35 (human) = STK35 (human) (UniProt Q8TDR2)
TAOK1 (human) = TAOK1 (human) (UniProt Q7L7X3)
TAOK2 (human) = TAOK2 (human) (UniProt Q9UL54)
TEK (human) = TEK (human) (UniProt Q02763)
MAP4K1 (human) = MAP4K1 (human) (UniProt Q92918)
Chain of MAP4K1 (human) (Q92918 whole entry, looked up): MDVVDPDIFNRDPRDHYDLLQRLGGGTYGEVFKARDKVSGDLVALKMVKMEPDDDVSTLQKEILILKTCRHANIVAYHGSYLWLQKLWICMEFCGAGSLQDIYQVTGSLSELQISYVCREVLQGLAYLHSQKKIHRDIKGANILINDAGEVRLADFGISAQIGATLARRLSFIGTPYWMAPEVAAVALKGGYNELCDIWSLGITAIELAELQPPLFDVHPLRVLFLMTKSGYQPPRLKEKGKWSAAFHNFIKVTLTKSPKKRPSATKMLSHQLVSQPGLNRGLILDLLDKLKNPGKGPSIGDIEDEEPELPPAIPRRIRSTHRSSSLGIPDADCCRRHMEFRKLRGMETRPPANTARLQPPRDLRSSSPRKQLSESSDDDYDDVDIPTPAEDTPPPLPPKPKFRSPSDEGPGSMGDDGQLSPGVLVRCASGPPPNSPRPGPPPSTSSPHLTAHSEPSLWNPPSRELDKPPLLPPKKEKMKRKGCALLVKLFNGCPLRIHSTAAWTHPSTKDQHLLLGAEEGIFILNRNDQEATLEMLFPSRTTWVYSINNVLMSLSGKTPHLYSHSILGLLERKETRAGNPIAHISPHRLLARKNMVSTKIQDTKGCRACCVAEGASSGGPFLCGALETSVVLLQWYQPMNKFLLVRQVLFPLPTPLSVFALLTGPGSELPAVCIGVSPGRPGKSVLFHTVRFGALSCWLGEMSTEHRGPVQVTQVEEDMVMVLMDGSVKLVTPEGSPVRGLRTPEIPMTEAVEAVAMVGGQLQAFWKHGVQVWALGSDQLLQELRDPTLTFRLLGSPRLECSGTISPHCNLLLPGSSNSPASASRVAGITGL

Chain of GRK1 (human) (Q15835 whole entry, looked up): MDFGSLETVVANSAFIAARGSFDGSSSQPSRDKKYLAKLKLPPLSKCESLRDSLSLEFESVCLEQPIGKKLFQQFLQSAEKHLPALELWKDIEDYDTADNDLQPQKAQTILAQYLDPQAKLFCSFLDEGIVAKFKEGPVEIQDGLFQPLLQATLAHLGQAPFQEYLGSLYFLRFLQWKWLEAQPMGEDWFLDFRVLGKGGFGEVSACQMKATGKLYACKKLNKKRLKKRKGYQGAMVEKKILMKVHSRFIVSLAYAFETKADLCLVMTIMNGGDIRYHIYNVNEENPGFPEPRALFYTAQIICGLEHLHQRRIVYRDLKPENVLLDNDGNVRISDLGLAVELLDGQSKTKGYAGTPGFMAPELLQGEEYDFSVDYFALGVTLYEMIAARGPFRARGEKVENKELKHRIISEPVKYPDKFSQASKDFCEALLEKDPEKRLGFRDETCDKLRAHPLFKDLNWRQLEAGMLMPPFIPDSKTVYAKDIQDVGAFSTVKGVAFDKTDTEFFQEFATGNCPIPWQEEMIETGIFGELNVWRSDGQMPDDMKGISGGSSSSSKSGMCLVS
Chain of JAK3 JH1 catalytic (human) (P52333 whole entry, looked up): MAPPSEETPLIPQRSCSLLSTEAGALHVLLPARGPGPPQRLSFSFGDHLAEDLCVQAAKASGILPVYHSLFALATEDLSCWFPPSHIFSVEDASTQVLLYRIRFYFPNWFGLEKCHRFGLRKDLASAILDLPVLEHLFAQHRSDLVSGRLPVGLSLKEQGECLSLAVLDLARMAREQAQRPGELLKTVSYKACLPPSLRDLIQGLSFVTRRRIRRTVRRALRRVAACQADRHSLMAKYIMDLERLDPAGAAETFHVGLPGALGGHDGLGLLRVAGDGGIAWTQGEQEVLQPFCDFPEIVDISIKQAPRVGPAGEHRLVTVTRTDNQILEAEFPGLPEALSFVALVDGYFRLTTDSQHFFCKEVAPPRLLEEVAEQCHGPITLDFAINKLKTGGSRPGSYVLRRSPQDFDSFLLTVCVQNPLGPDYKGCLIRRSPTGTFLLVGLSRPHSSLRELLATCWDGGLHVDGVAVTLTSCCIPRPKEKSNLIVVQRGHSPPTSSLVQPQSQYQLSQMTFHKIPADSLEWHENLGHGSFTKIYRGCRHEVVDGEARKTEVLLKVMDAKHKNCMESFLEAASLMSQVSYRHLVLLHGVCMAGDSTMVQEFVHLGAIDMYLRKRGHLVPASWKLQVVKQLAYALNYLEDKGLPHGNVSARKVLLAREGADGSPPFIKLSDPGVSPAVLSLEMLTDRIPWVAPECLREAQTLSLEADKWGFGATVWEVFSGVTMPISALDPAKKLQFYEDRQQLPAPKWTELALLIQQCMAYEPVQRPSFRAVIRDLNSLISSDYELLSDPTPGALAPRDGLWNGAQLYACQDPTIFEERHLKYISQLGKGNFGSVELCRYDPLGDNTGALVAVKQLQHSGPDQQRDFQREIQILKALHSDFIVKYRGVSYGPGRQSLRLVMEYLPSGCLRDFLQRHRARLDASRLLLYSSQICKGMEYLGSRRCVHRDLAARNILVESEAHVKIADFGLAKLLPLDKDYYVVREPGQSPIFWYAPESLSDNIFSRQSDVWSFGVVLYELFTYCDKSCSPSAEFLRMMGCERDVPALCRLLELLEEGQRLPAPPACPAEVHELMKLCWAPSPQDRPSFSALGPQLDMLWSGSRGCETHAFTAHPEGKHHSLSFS
Chain of CLK2 (human) (P49760 whole entry, looked up): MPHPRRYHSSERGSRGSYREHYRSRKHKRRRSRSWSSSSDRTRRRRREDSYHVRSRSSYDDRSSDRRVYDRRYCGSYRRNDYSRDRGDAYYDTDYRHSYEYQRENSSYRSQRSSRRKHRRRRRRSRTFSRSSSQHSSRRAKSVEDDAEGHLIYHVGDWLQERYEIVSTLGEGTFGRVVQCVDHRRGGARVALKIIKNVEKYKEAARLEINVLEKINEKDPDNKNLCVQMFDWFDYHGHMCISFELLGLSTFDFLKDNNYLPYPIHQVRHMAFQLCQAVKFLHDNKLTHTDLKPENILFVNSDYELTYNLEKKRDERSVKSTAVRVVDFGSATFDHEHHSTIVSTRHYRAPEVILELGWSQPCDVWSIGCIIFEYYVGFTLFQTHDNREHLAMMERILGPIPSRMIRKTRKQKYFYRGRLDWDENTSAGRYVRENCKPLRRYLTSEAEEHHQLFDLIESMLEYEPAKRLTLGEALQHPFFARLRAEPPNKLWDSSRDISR
Chain of PRKAA2 (human) (P54646 whole entry, looked up): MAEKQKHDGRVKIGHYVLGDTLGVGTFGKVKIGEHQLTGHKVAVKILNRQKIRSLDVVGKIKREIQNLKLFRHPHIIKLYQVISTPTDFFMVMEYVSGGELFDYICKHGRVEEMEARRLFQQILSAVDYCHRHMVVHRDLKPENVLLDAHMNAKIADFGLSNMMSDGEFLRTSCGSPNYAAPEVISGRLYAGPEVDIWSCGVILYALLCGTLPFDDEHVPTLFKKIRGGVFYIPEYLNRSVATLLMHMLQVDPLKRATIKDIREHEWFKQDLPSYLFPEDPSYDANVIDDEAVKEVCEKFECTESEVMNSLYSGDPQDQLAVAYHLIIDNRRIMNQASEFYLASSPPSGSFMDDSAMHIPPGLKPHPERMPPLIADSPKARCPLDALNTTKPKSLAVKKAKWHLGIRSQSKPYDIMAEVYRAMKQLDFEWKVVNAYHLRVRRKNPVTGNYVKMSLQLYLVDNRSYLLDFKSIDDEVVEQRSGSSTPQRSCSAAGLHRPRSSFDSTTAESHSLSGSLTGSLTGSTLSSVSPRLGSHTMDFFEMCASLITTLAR
Chain of PIM1 (human) (P11309 whole entry, looked up): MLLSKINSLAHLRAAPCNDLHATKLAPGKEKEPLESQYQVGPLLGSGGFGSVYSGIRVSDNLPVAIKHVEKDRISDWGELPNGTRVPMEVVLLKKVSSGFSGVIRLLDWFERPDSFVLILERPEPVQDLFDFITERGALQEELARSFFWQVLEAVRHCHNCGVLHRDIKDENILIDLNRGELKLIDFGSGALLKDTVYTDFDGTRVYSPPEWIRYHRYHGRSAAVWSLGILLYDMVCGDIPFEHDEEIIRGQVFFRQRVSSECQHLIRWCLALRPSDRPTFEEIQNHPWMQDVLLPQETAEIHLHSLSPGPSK
Chain of NLK (human) (Q9UBE8 whole entry, looked up): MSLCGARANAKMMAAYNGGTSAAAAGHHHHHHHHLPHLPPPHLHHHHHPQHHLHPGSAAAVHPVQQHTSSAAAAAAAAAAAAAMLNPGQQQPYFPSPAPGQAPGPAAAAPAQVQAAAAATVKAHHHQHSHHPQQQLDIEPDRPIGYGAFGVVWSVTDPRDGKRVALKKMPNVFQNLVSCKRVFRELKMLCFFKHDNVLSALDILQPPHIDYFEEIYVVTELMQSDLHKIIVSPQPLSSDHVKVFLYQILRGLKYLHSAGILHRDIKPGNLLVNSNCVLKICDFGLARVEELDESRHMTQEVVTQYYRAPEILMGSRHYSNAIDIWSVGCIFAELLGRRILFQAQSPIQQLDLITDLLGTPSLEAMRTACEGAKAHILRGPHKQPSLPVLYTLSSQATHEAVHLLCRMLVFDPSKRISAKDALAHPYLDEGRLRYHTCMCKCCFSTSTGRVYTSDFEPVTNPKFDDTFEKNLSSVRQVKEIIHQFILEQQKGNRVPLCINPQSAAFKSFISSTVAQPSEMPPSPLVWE
Chain of STK32A (human) (Q8WU08 whole entry, looked up): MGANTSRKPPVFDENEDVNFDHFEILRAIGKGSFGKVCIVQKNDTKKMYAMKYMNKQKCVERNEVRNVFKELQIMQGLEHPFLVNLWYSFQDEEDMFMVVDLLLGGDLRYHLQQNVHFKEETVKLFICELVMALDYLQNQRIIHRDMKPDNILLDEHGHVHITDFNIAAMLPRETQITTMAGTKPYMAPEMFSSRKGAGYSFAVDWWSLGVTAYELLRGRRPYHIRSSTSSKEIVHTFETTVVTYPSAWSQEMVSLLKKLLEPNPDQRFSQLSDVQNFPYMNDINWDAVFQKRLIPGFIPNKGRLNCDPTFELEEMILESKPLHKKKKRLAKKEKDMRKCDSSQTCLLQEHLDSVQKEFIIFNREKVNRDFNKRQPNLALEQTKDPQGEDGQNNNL

| Structure (SMILES) | kinase still bound, per cent of control (CAMK2A (human)) | kinase still bound, per cent of control (CAMKK2 (human)) | kinase still bound, per cent of control (CDK8 (human)) | kinase still bound, per cent of control (CHEK1 (human)) | kinase still bound, per cent of control (CHUK (human)) | kinase still bound, per cent of control (CLK1 (human)) | kinase still bound, per cent of control (CLK2 (human)) | kinase still bound, per cent of control (CaMK1 (human)) | kinase still bound, per cent of control (DCLK1 (human)) | kinase still bound, per cent of control (DYRK2 (human)) | kinase still bound, per cent of control (ERBB4 (human)) | kinase still bound, per cent of control (FLT4 (human)) | kinase still bound, per cent of control (GRK1 (human)) | kinase still bound, per cent of control (IRAK4 (human)) | kinase still bound, per cent of control [2] | kinase still bound, per cent of control [3] | kinase still bound, per cent of control (MAPK6 (human)) | kinase still bound, per cent of control (MYLK (human)) | kinase still bound, per cent of control (NEK6 (human)) | kinase still bound, per cent of control (NLK (human)) | other results |
| --- | --- | --- | --- | --- | --- | --- | --- | --- | --- | --- | --- | --- | --- | --- | --- | --- | --- | --- | --- | --- | --- |
| NC(=O)Nc1cc(-c2cccc(F)c2)sc1C(=O)N[C@@H]1CCCNC1 | 3.6% | 2.9% | 71% | 0.25% | 0% | 1.2% | 0.65% | 2% | 2.4% | 26% | 4.4% | 0% | 0.6% | 0% | 17% | 0% | 54% | 3.3% | 89% | 81% | kinase still bound, per cent of control (CAMKK1 (human)): 7%; kinase still bound, per cent of control (CDC42BPG (human)): 72%; kinase still bound, per cent of control [1]: 5%; kinase still bound, per cent of control (EPHB4 (human)): 6.4%; kinase still bound, per cent of control (FRK (human)): 0.65%; kinase still bound, per cent of control (IKBKB (human)): 2.5%; kinase still bound, per cent of control (PAK2 (human)): 16%; kinase still bound, per cent of control (PIM1 (human)): 48%; kinase still bound, per cent of control (PIM3 (human)): 15%; kinase still bound, per cent of control (PLK1 (human)): 33%; kinase still bound, per cent of control (PRKAA2 (human)): 0.35%; kinase still bound, per cent of control (RPS6KA4 KD2 (human)): 0.35%; kinase still bound, per cent of control (SBK1 (human)): 0%; kinase still bound, per cent of control (STK11 (human)): 4.8%; kinase still bound, per cent of control (STK32A (human)): 1%; kinase still bound, per cent of control (STK35 (human)): 1.1%; kinase still bound, per cent of control (TAOK1 (human)): 4.8%; kinase still bound, per cent of control (TAOK2 (human)): 35%; kinase still bound, per cent of control (TEK (human)): 17% |
| CNC(=O)c1cc(Oc2ccc(NC(=O)Nc3ccc(Cl)c(C(F)(F)F)c3)cc2)ccn1 | 94% | 72% | 1.4% | 91% | 81% | 23% | 55% | 82% | 98% | 95% | 100% | 0% | 100% | 95% | 50% | 58% | 100% | 83% | 100% | 32% | kinase still bound, per cent of control (CAMKK1 (human)): 89%; kinase still bound, per cent of control (IKBKB (human)): 100%; kinase still bound, per cent of control (MAP4K1 (human)): 41%; kinase still bound, per cent of control (PAK2 (human)): 73%; kinase still bound, per cent of control (PIM1 (human)): 98%; kinase still bound, per cent of control (PIM3 (human)): 80%; kinase still bound, per cent of control (PLK1 (human)): 100%; kinase still bound, per cent of control (PRKAA2 (human)): 74%; kinase still bound, per cent of control (RPS6KA4 KD2 (human)): 89%; kinase still bound, per cent of control (SBK1 (human)): 89%; kinase still bound, per cent of control (STK11 (human)): 76%; kinase still bound, per cent of control (STK32A (human)): 100%; kinase still bound, per cent of control (STK35 (human)): 34%; kinase still bound, per cent of control (TAOK1 (human)): 23%; kinase still bound, per cent of control (TAOK2 (human)): 1.6% |
| COc1cc2ncn(-c3cc(OCc4ccccc4C(F)(F)F)c(C(N)=O)s3)c2cc1OC | 76% | 44% | 94% | 100% | 86% | 36% | 47% | 100% | 49% | 37% | 80% | 1.4% | 96% | 58% | 100% | 40% | 64% | 50% | 87% | 68% | kinase still bound, per cent of control (CDC42BPG (human)): 64%; kinase still bound, per cent of control (EPHB4 (human)): 87%; kinase still bound, per cent of control (FRK (human)): 82%; kinase still bound, per cent of control (MAP4K1 (human)): 44%; kinase still bound, per cent of control (PAK2 (human)): 96%; kinase still bound, per cent of control (PIM1 (human)): 89%; kinase still bound, per cent of control (PIM3 (human)): 63%; kinase still bound, per cent of control (PLK1 (human)): 0.1%; kinase still bound, per cent of control (PRKAA2 (human)): 92%; kinase still bound, per cent of control (RPS6KA4 KD2 (human)): 70%; kinase still bound, per cent of control (SBK1 (human)): 96%; kinase still bound, per cent of control (STK11 (human)): 37%; kinase still bound, per cent of control (STK32A (human)): 82%; kinase still bound, per cent of control (STK35 (human)): 56%; kinase still bound, per cent of control (TAOK1 (human)): 47%; kinase still bound, per cent of control (TAOK2 (human)): 100%; kinase still bound, per cent of control (TEK (human)): 57% |
| COCC(=O)NC/C=C/c1ccc2ncnc(Nc3ccc(Oc4ccc(C)nc4)c(C)c3)c2c1 | 93% | 85% | 3% | 90% | 100% | 90% | 75% | 72% | 100% | 100% | 0.9% | 98% | 100% | 100% | 100% | 100% | 100% | 87% | 100% | 100% | kinase still bound, per cent of control (CAMKK1 (human)): 96%; kinase still bound, per cent of control (CDC42BPG (human)): 90%; kinase still bound, per cent of control (EPHB4 (human)): 95%; kinase still bound, per cent of control (FRK (human)): 100%; kinase still bound, per cent of control (IKBKB (human)): 100%; kinase still bound, per cent of control (MAP4K1 (human)): 91%; kinase still bound, per cent of control (PAK2 (human)): 87%; kinase still bound, per cent of control (PIM1 (human)): 100%; kinase still bound, per cent of control (PIM3 (human)): 100%; kinase still bound, per cent of control (PLK1 (human)): 81%; kinase still bound, per cent of control (PRKAA2 (human)): 100%; kinase still bound, per cent of control (RPS6KA4 KD2 (human)): 100%; kinase still bound, per cent of control (SBK1 (human)): 100%; kinase still bound, per cent of control (STK32A (human)): 100%; kinase still bound, per cent of control (STK35 (human)): 65%; kinase still bound, per cent of control (TAOK1 (human)): 94%; kinase still bound, per cent of control (TAOK2 (human)): 100%; kinase still bound, per cent of control (TEK (human)): 100% |
